Values of other authors in patent publication US11555040B2, “Oxepinopyrazole derivatives as inhibitors of P13-kinase activity” (GLAXOSMITHKLINE INTELLECTUAL PROPERTY DEVELOPMENT LIMITED, priority 2017, dated 2023).

System: amphetamine-induced psychosis
Conditions: Law et al. 2012

SMILES: Cc1ccccc1-n1c(Cn2cnc3c(N)ncnc32)nc2cccc(C)c2c1=O [IC87114]
- efficacy in mouse model of amphetamine-induced psychosis: remarkable efficacy
